Data taken from PubChem BioAssay (NCI).
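Where inhibition never reached the appropriate level, the endpoint shown equals the highest concentration tested. Otherwise, values were interpolated linearly from a five-concentration, 48-hour dose response in 96-well plates. The concentration for full growth arrest is given as TGI.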

How the values were obtained:
Test in all cases: NCI tumour cell line growth inhibition, 48 h
HOP-62 NSCLC = test system: HOP-62 NSCLC
HOP-92 NSCLC = test system: HOP-92 NSCLC
HS 578T breast = test system: HS 578T breast
NCI-H226 lung = test system: NCI-H226 lung
OVCAR-4 ovarian = test system: OVCAR-4 ovarian
OVCAR-8 ovarian = test system: OVCAR-8 ovarian
SR leukemia = test system: SR leukemia
SW-620 colon = test system: SW-620 colon
UACC-62 melanoma = test system: UACC-62 melanoma
SK-OV-3 ovarian = test system: SK-OV-3 ovarian

Row | SMILES | TGI (HOP-62 NSCLC) | TGI (HOP-92 NSCLC) | TGI (HS 578T breast) | TGI (NCI-H226 lung) | TGI (OVCAR-4 ovarian) | TGI (OVCAR-8 ovarian) | TGI (SR leukemia) | TGI (SW-620 colon) | TGI (UACC-62 melanoma) | TGI (SK-OV-3 ovarian)
1 | COc1ccc(C2CC(c3cc4c(C)c(C(=O)c5ccccc5)oc4cc3O)=Nc3ccccc3S2)cc1OC (centres undefined) | > 34.3 µM | > 73.7 µM | > 100 µM | > 100 µM | > 48.9 µM | > 100 µM | > 100 µM | > 100 µM | > 85.8 µM | 
2 | COC(=O)C(=O)C(C(=O)C(=O)Nc1ccccc1C(=O)OC)c1nc2ccc(C(=O)c3ccccc3)cc2[nH]c1=O (centres undefined) | > 100 µM | > 100 µM | > 100 µM | > 100 µM | 88.8 µM | > 100 µM |  | > 100 µM | > 100 µM | > 100 µM
3 | O=C(CCN1CCCCC1CCO)Nc1ccc2c(c1)C(=O)c1ccc(NC(=O)CCN3CCCCC3CCO)cc1C2=O (centres undefined) | 21.4 µM | 31 µM |  | 22.1 µM | 45.4 µM | 15.1 µM | 29.3 µM | 9.88 µM | 13.9 µM | 22.6 µM
4 | COC(=O)OC[C@H]1O[C@@H](n2cc(C)c(=O)[nH]c2=O)CC1OC(=O)OC (some centres undefined) | > 100 µM |  | > 100 µM | > 100 µM | > 100 µM | > 100 µM | > 100 µM | > 100 µM | > 100 µM | > 100 µM
5 | Cc1ncc([N+](=O)[O-])n1CCN(C)CCCCn1ccnc1[N+](=O)[O-] | > 100 µM |  | > 100 µM | > 100 µM | > 100 µM | > 100 µM | > 100 µM | > 100 µM | > 100 µM | > 100 µM
6 | C1=C2SSC3=CC=C(SSc4ccc(s4)SSC4=CC=C(SSC(=C1)S2)S4)S3 | > 100 µM | > 100 µM |  | > 100 µM | > 100 µM | > 100 µM | > 100 µM | > 100 µM |  | > 100 µM
7 | CC12CC3c4ccccc4CN1C3(c1ccccc1)OC2=O (centres undefined) | > 100 µM |  | > 100 µM | > 100 µM | > 100 µM | > 100 µM |  | > 100 µM | > 100 µM | > 100 µM
8 | N/C(CC/C(N)=N\O)=N\O | > 100 µM | > 100 µM | > 100 µM | > 100 µM | > 100 µM |  | > 100 µM | > 100 µM | > 100 µM | 
9 | CC(C)CN1CN(c2ccccc2)C2(CCN(CC(C)(c3ccc(F)cc3)C3OCCO3)CC2)C1=O (centres undefined) | 13.8 µM |  | 16.8 µM | 29.1 µM | 29.7 µM | 29.3 µM | 12.8 µM | 17.5 µM | 26.3 µM | 14.3 µM
10 | CC1=C/C(=C(\c2ccc(N(C)C)cc2)c2ccc([N+](C)(C)C)cc2)C=CC1=[N+](C)C | 71.5 µM | 30.6 µM |  | 33.8 µM | 32.9 µM | 69.8 µM | 4.75 µM | 46.3 µM | 19.3 µM | 31.6 µM
11 | COc1ccc(C[C@@H]2CN(C(=O)c3ccccc3)[C@H](Cc3ccc(O)cc3)CN2C(=O)c2ccccc2)cc1Br | > 100 µM | > 100 µM | > 100 µM | > 100 µM | > 100 µM | > 100 µM | > 100 µM | > 100 µM |  | > 100 µM
12 | CC1C(c2ccc(N(C)C)cc2)c2cc3c(cc2OC1N1CCCC1)OCO3 (centres undefined) | > 78.6 µM | > 100 µM | 78 µM |  | > 100 µM | > 100 µM | > 100 µM | > 100 µM | > 100 µM | 
13 | CSc1n[nH]c(N)c1C(=O)Nc1ccc(Cl)cc1 |  |  | > 100 µM | 76.5 µM | > 100 µM | > 100 µM | > 100 µM | > 100 µM | > 100 µM | > 100 µM
14 | CCOC(=O)NNC(=O)NCCNC(=O)NNC(=O)OCC |  |  | > 100 µM | > 100 µM | > 100 µM | > 100 µM | > 100 µM | > 100 µM | > 100 µM | > 100 µM
15 | c1ccc2[nH]c(-c3nc4ccccc4o3)nc2c1 | > 100 µM | > 100 µM |  | > 100 µM | > 100 µM | > 100 µM | > 100 µM |  |  | > 100 µM
16 | O=S(=O)(O)c1ccc(NN(c2c(O)ccc3ccccc23)S(=O)(=O)O)cc1 | > 100 µM |  | > 100 µM | > 100 µM | > 100 µM | > 100 µM | > 100 µM | > 100 µM | > 100 µM | > 100 µM
17 | Fc1cccc(F)c1C1SCC2=Nc3ccccc3CN21 (centres undefined) | 84.4 µM | > 100 µM | > 100 µM |  | > 100 µM |  | > 100 µM | > 100 µM | > 100 µM | > 100 µM
18 | c1cc(-c2cscc2-c2ccsc2)cs1 | > 100 µM | > 100 µM | 64.2 µM |  | > 100 µM |  | > 100 µM | > 100 µM | > 100 µM | > 100 µM
19 | CN1CC(c2ccccc2)=Cc2c1ccc(N)c2N=N | > 100 µM |  | > 100 µM | > 100 µM | > 100 µM | > 100 µM | > 100 µM | > 100 µM | > 100 µM | > 100 µM
20 | COc1c(C2(c3ccc(F)cc3)SCCCS2)c(=O)c1=O | > 100 µM | > 100 µM | > 100 µM | > 100 µM | > 100 µM | > 100 µM |  | > 100 µM | > 100 µM | > 100 µM
21 | Oc1c(OCc2nnc(CCCCCCCCc3nnc(COc4ccc5ccccc5c4O)n3Nc3ccccc3)n2Nc2ccccc2)ccc2ccccc12 | 3.77 µM | 32.3 µM | 22.2 µM | 24.1 µM | 20.7 µM | 28.3 µM |  | 24.6 µM | 16.5 µM | 27.3 µM
22 | CSc1nc2c(c(N(C)C)n1)C=Nn1c(nc3ccccc31)S2 | > 100 µM | 89.4 µM | > 100 µM | > 100 µM | > 100 µM | > 100 µM |  | > 100 µM | > 100 µM | > 100 µM
23 | Cc1c(C)c(C)c(-n2c(=O)n(C)c(=O)n2C(C)(C)C)c(C)c1C |  | > 100 µM | > 100 µM |  | > 100 µM |  | > 100 µM | > 100 µM | > 100 µM | > 100 µM
24 | Cc1cc(Br)c(N2C3=C(CC4=C2CCCC4=O)C(=O)CCC3)c(Br)c1 |  | 94.3 µM | > 100 µM | > 100 µM | > 100 µM | > 100 µM | > 100 µM | > 100 µM | > 100 µM | > 100 µM
